According to ChEMBL document CHEMBL1201862, “PubChem BioAssay data set” (2004):
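Results reflect a 48-hour exposure of cells in 96-well plates to compound at five concentrations. GI50 marks 50% less growth.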 Calls of active or inactive are those of the source. Cut-off read from the data, not from the text of the source: active = GI50 up to about 1.1 µM and inactive = higher.

Tests used:
Assay in all cases: NCI-60 cell line screen, 48 h
XF498 = tested on: XF498
DLD-1 = tested on: DLD-1
HOP-62 = tested on: HOP-62
LOX IMVI = tested on: LOX IMVI
IGROV-1 = tested on: IGROV-1
OVCAR-5 = tested on: OVCAR-5
UO-31 = tested on: UO-31
MOLT-4 = tested on: MOLT-4
UACC-62 = tested on: UACC-62
SW-620 = tested on: SW-620
COLO 205 = tested on: COLO 205
SK-MEL-2 = tested on: SK-MEL-2
SK-MEL-28 = tested on: SK-MEL-28
HT-29 = tested on: HT-29
SR = tested on: SR
NCI-H23 = tested on: NCI-H23
RXF 631 = tested on: RXF 631
CCRF-CEM = tested on: CCRF-CEM
A498 = tested on: A498
HOP-18 = tested on: HOP-18
SF-539 = tested on: SF-539
M19-MEL = tested on: M19-MEL
M14 = tested on: M14
SNB-75 = tested on: SNB-75
SN12C = tested on: SN12C
A549 = tested on: A549
KM12 = tested on: KM12
U-251 = tested on: U-251
SF-268 = tested on: SF-268
HOP-92 = tested on: HOP-92
LXFL 529 = tested on: LXFL 529
OVCAR-8 = tested on: OVCAR-8
HCC 2998 = tested on: HCC 2998
HCT-116 = tested on: HCT-116
EKVX = tested on: EKVX
SK-MEL-5 = tested on: SK-MEL-5
K562 = tested on: K562
SK-OV-3 = tested on: SK-OV-3
HL-60 = tested on: HL-60
TK-10 = tested on: TK-10
OVCAR-4 = tested on: OVCAR-4
NCI-H226 = tested on: NCI-H226
KM-20L2 = tested on: KM-20L2
RPMI-8226 = tested on: RPMI-8226
NCI-H460 = tested on: NCI-H460
HCT-15 = tested on: HCT-15
UACC-257 = tested on: UACC-257
DMS-114 = tested on: DMS-114
RXF 393 = tested on: RXF 393
Malme-3M = tested on: Malme-3M
OVCAR-3 = tested on: OVCAR-3
DMS-273 = tested on: DMS-273
SF-295 = tested on: SF-295
ACHN = tested on: ACHN
NCI-H522 = tested on: NCI-H522
SNB-19 = tested on: SNB-19
SNB-78 = tested on: SNB-78
786-0 = tested on: 786-0

Nc1nc(Cl)cc(NCCCNc2cc(Cl)nc(N)n2)n1
GI50 (XF498): > 100 µM (inactive)
GI50 (DLD-1): > 100 µM (inactive)
GI50 (HOP-62): > 100 µM (inactive)
GI50 (LOX IMVI): > 100 µM (inactive)
GI50 (IGROV-1): > 100 µM (inactive)
GI50 (OVCAR-5): > 100 µM (inactive)
GI50 (UO-31): > 100 µM (inactive)
GI50 (MOLT-4): > 100 µM (inactive)
GI50 (UACC-62): > 100 µM (inactive)
GI50 (SW-620): > 100 µM (inactive)
GI50 (COLO 205): > 100 µM (inactive)
GI50 (SK-MEL-2): > 100 µM (inactive)
GI50 (SK-MEL-28): > 100 µM (inactive)
GI50 (HT-29): > 100 µM (inactive)
GI50 (SR): > 100 µM (inactive)
GI50 (NCI-H23): > 100 µM (inactive)
GI50 (RXF 631): > 100 µM (inactive)
GI50 (CCRF-CEM): > 100 µM (inactive)
GI50 (A498): > 100 µM (inactive)
GI50 (HOP-18): > 100 µM (inactive)
GI50 (SF-539): > 100 µM (inactive)
GI50 (M19-MEL): > 100 µM (inactive)
GI50 (M14): > 100 µM (inactive)
GI50 (SNB-75): > 100 µM (inactive)
GI50 (SN12C): > 100 µM (inactive)
GI50 (A549): > 100 µM (inactive)
GI50 (KM12): > 100 µM (inactive)
GI50 (U-251): > 100 µM (inactive)
GI50 (SF-268): > 100 µM (inactive)
GI50 (HOP-92): > 100 µM (inactive)
GI50 (LXFL 529): > 100 µM (inactive)
GI50 (OVCAR-8): > 100 µM (inactive)
GI50 (HCC 2998): > 100 µM (inactive)
GI50 (HCT-116): > 100 µM (inactive)
GI50 (EKVX): > 100 µM (inactive)
GI50 (SK-MEL-5): > 100 µM (inactive)
GI50 (K562): > 100 µM (inactive)
GI50 (SK-OV-3): > 100 µM (inactive)
GI50 (HL-60): > 100 µM (inactive)
GI50 (TK-10): > 100 µM (inactive)
GI50 (OVCAR-4): > 100 µM (inactive)
GI50 (NCI-H226): > 100 µM (inactive)
GI50 (KM-20L2): > 100 µM (inactive)
GI50 (RPMI-8226): > 100 µM (inactive)
GI50 (NCI-H460): > 100 µM (inactive)
GI50 (HCT-15): > 100 µM
GI50 (UACC-257): > 100 µM (inactive)
GI50 (DMS-114): > 100 µM (inactive)
GI50 (RXF 393): > 100 µM (inactive)
GI50 (Malme-3M): > 100 µM (inactive)
GI50 (OVCAR-3): > 100 µM (inactive)
GI50 (DMS-273): > 100 µM (inactive)
GI50 (SF-295): > 100 µM (inactive)

Cc1ccc2[nH]c3c(C)c4c(c(C)c3c2c1)CN(C)C=C4
GI50 (ACHN): 6.55 µM (inactive)
GI50 (XF498): 1.25 µM (inactive)
GI50 (DLD-1): 1.44 µM (inactive)
GI50 (HOP-62): 0.743 µM (active)
GI50 (LOX IMVI): 3.93 µM (inactive)
GI50 (IGROV-1): 0.698 µM (active)
GI50 (NCI-H522): 152 nM (active)
GI50 (OVCAR-5): 3.1 µM (inactive)
GI50 (UO-31): 3.52 µM (inactive)
GI50 (SNB-19): 520 nM (active)
GI50 (MOLT-4): 1.91 µM (inactive)
GI50 (UACC-62): 1.62 µM (inactive)
GI50 (SW-620): 0.281 µM (active)
GI50 (COLO 205): 0.285 µM (active)
GI50 (SK-MEL-2): 1.72 µM (inactive)
GI50 (SK-MEL-28): 1.98 µM (inactive)
GI50 (HT-29): 2.46 µM (inactive)
GI50 (SR): 1.61 µM (inactive)
GI50 (NCI-H23): 0.735 µM (active)
GI50 (RXF 631): 0.931 µM (active)
GI50 (HOP-18): 7.46 µM (inactive)
GI50 (SF-539): 0.393 µM (active)
GI50 (M14): 3.9 µM (inactive)
GI50 (SNB-75): 0.75 µM (active)
GI50 (SN12C): 0.186 µM (active)
GI50 (A549): 0.37 µM (active)
GI50 (KM12): 0.54 µM (active)
GI50 (U-251): 0.271 µM (active)
GI50 (SF-268): 0.353 µM (active)
GI50 (HOP-92): 1.07 µM (active)
GI50 (LXFL 529): 0.377 µM (active)
GI50 (OVCAR-8): 0.444 µM (active)
GI50 (HCC 2998): 1.52 µM (inactive)
GI50 (HCT-116): 2.32 µM (inactive)
GI50 (EKVX): 1.17 µM (inactive)
GI50 (SK-MEL-5): 1.38 µM (inactive)
GI50 (K562): 1.42 µM (inactive)
GI50 (SK-OV-3): 0.33 µM (active)
GI50 (HL-60): 4.46 µM (inactive)
GI50 (TK-10): 9.29 µM (inactive)
GI50 (OVCAR-4): 1.66 µM (inactive)
GI50 (NCI-H226): 0.353 µM (active)
GI50 (SNB-78): 738 nM (active)
GI50 (KM-20L2): 2.18 µM (inactive)
GI50 (RPMI-8226): 5.35 µM (inactive)
GI50 (NCI-H460): 2.74 µM (inactive)
GI50 (HCT-15): 13.8 µM
GI50 (UACC-257): 2.53 µM (inactive)
GI50 (786-0): 325 nM (active)
GI50 (RXF 393): 1.53 µM (inactive)
GI50 (OVCAR-3): 2.75 µM (inactive)
GI50 (DMS-273): 1.04 µM (active)
GI50 (SF-295): 0.423 µM (active)
